One data set deals with KB. Put plainly: SRB in vitro cytotoxicity assay, KB oral cancer cells. It counts as cell-based. The conditions noted are these: Homo sapiens, 48 h drug exposure, read-out: In vitro anticancer activity GI50, Oral KB. The source says: (§1) Compounds 4a-4z and 4aa-4ae have been evaluated for their in vitro cytotoxicity in selected human cancer cell lines i.e., colon (Colo205), lung (Hop-62, A549), cervix (SiHa), prostate (PC3), oral (KB, DWD, Gurav), Ovarian (A-2780) and breast (MCF7, Zr-75-1) origin by employing the sulforhodamine B (SRB) assay method (Skehn, P.; Storeng, R.; Scudiero, A.; Monks, J.; MeMohan, D.; Vistica, D.; Jonathan, T. W.; Bokesch, H.; Kenney, S.; Boyd M. R. J. Natl. Cancer Inst. 1990, 82, 1107).
(§2) The synthesized compounds have been evaluated for their in vitro cytotoxicity in human cancer cell lines. A protocol of 48 h continuous drug exposure has been used and a sulforhodamine B (SRB) protein assay has been used to estimate cell viability or growth. The cell lines were grown in DMEM medium containing 10% fetal bovine serum and 2 mM L-glutamine and were inoculated into 96 well microtiter plates in […] at plating densities depending on the doubling time of individual cell lines. The microliter plates were incubated at 37_C, 5% CO2, 95% air, and 100% relative humidity for 24 h prior to addition of experimental drugs. Aliquots of […] of the drug dilutions were added to the appropriate microliter wells already containing […] of cells, suiting in the required final drug concentrations. For each compound four concentrations (0.1, 1, 10 and 100 uM) were evaluated and each was done in triplicate wells. Plates were incubated further for 48 h and assay was terminated by the addition of […] of cold trichloro acetic acid (TCA) (final concentration, 10% TCA) and incubated for 60 min at 4_C. The plates were washed five times with tap water and airdried. Sulforhodamine B (SRB) solution ([…]) at 0.4% (w/v) in 1% acetic acid was added to each of the cells, and plates were incubated for 20 min at room temperature. The residual dye was removed by washing five times with 1% acetic acid. The plates were airdried. Bound stain was subsequently eluted with 10 mM trizma base, and the absorbance was read on an ELISA plate reader at a wavelength of 540 nm with 690 nm reference wavelengths. Percent growth was calculated on a plate by plate basis for test wells relative to control wells. The above determinations were repeated three times. Percentage growth was expressed as the (ratio of average absorbance of the test well to the average absorbance of the control wells)*100. Growth inhibition of 50% (GI50) was calculated from [(Ti−Tz)/(C−Tz)]*100 ¼ 50, which is the drug concentration resulting in a 50% reduction in the net protein increase (as measured by SRB staining) in control cells during the drug incubation. Where, Tz ¼ Optical density at time zero, OD of control ¼ C, and OD of test growth in the presence of drug ¼ Ti.

The subject of another data set is SiHa. Put plainly: SRB in vitro cytotoxicity assay, SiHa cervix cancer cells. The class given is cell-based. The conditions noted are these: Homo sapiens, 48 h drug exposure, read-out: In vitro anticancer activity GI50, Cervix SiHa.
From the text: as §1, §2

The subject of another data set is Colo 205. Kind of data set: SRB in vitro cytotoxicity assay, Colo 205 colon cancer cells. The class given is cell-based. The conditions noted are these: Homo sapiens, 48 h drug exposure, read-out: In vitro anticancer activity GI50, Colon Colo 205.
From the text: as §1, §2

The test system of another data set is Gurav. Kind of data set: SRB in vitro cytotoxicity assay, Gurav oral cancer cells. It counts as cell-based. The conditions noted are these: Homo sapiens, 48 h drug exposure, read-out: In vitro anticancer activity GI50, Oral Gurav.
From the text: as §1, §2

In another data set the test system is MCF7. Put plainly: SRB in vitro cytotoxicity assay, MCF7 breast cancer cells. It counts as cell-based. The settings on record: Homo sapiens, 48 h drug exposure, read-out: In vitro anticancer activity GI50, Breast MCF7.
From the text: as §1, §2

The next data set relates to A-549. Put plainly: SRB in vitro cytotoxicity assay, A-549 lung cancer cells. The class given is cell-based. The settings on record: Homo sapiens, A549, 48 h drug exposure, read-out: In vitro anticancer activity GI50, Lung A-549.
From the text: as §1, §2

A further data set has as its system Hop62. Put plainly: SRB in vitro cytotoxicity assay, Hop62 lung cancer cells. The class given is cell-based. The conditions noted are these: Homo sapiens, HOP-62, 48 h drug exposure, read-out: In vitro anticancer activity GI50, Lung Hop62.
From the text: as §1, §2

The next data set has as its system DWD. Put plainly: SRB in vitro cytotoxicity assay, DWD oral cancer cells. The settings on record: Homo sapiens, 48 h drug exposure, read-out: In vitro anticancer activity GI50, Oral DWD. The class given is cell-based.
From the text: as §1, §2

The next data set has as its system A-2780. Kind of data set: SRB in vitro cytotoxicity assay, A-2780 ovarian cancer cells. The class given is cell-based. The settings on record: Homo sapiens, A2780, 48 h drug exposure, read-out: In vitro anticancer activity GI50, Ovarian A-2780.
From the text: as §1, §2

A further data set deals with Zr-75-1. Kind of data set: SRB in vitro cytotoxicity assay, Zr-75-1 breast cancer cells. The class given is cell-based. The conditions noted are these: Homo sapiens, 48 h drug exposure, read-out: In vitro anticancer activity GI50, Breast Zr-75-1.
From the text: as §1, §2

In the next data set the test system is PC3. Put plainly: SRB in vitro cytotoxicity assay, PC3 prostate cancer cells. The settings on record: Homo sapiens, PC-3, 48 h drug exposure, read-out: In vitro anticancer activity GI50, Prostate PC3. The class given is cell-based.
From the text: as §1, §2

On to `COc1ccc(C2C3=C(COC3=O)Nc3ccc4ncsc4c32)cc1O` (stereo not shown) [Compound 4u, 10-(3-hydroxy-4-methoxyphenyl)-6,7,9,10-tetrahydrofuro[3,4-b][1,3]thiazolo[5,4-f]quinolin-9-one], for which the melting point (usually the temperature of the solid-liquid transition) was in the range of 327 to 329 °C. Further, the GI50 (commonly the concentration giving 50% growth inhibition) in the data set with KB turned out to be 180 nM. The GI50 in the data set on SiHa was determined as 2000 nM. For the same compound, in the data set on Colo 205, the concentration for 50% growth inhibition (GI50) came to 150 nM. Also, the GI50 with Gurav came out at 190 nM. Also, the concentration for 50% growth inhibition (GI50) with MCF7 amounted to 180 nM. Besides, in the data set with A-549, the GI50 was under 100 nM. Also, the GI50 with Hop62 was found to be 2300 nM. For the same compound, in the data set on DWD, the GI50 was 2000 nM. In addition, in the data set on A-2780, the 50% growth inhibitory concentration (GI50) was found to be 180 nM. Besides, in the data set on Zr-75-1, the GI50 was found to be 160 nM. Besides, the GI50 with PC3 amounted to 2100 nM.
Turning to `COc1cc(C2C3=C(COC3=O)Nc3ccc4cn[nH]c4c32)cc(OC)c1OC` (stereo not shown) [Compound 4n, 10-(3,4,5-trimethoxyphenyl)-6,7,9,10-tetrahydro-1H-furo[3,4-b]pyrazolo[3,4-f]quinolin-9-one], the GI50 was 2100 nM in the data set on KB; 190 nM in the data set on SiHa; 2700 nM in the data set on Colo 205; 160 nM in the data set with Gurav; 190 nM in the data set with MCF7; under 100 nM with A-549. For the same compound, the GI50 is 2100 nM in the data set with Hop62; under 100 nM in the data set with DWD; 140 nM with A-2780; 160 nM with Zr-75-1; 190 nM with PC3.
With `COc1cccc2c1C(=O)c1c(O)c3c(c(O)c1C2=O)C[C@@](O)(C(=O)CO)C[C@@H]3O[C@H]1C[C@H](N)[C@H](O)[C@H](C)O1` [ADR, adriamycin, reference compound], the GI50 in the data set with KB is 130 nM; with SiHa it was 160 nM; with Colo 205 it was under 100 nM; in the data set with Gurav it was under 100 nM; with MCF7, 130 nM; in the data set on A-549, under 100 nM. Further, the 50% growth inhibitory concentration (GI50) with Hop62 is 150 nM; in the data set on DWD it was under 100 nM; in the data set with A-2780, under 100 nM; in the data set on Zr-75-1, 110 nM; with PC3, 160 nM.

(Values after patent US8927560B2, “4-Aza-2, 3-didehydropodophyllotoxin compounds and process for the preparation thereof” (Council of Scientific & Industrial Research, priority 2010, dated 2015).)
